Where two headings read alike, the source gives them in different places.
What was measured:
[1] = cited from earlier work

With `C=CCN1CC[C@]23c4c5ccc(O)c4O[C@H]2C(=O)CC[C@@]3(O)[C@H]1C5` [naloxone] the “Time by which mean plasma naloxone concentration was BLQ” value (naloxone 1.875 μg/kg IV) was no more than 15 min, the “Time by which mean plasma naloxone concentration was BLQ” value (naloxone 15 μg/kg IV) was no more than 120 min and the “Time of maximum mean plasma naloxone concentration” value (post-infusion, each treatment) was 5 min. The oral bioavailability [1] was less than 3%.

— patent US20170182031A1, “REDUCING DRUG LIKING IN A SUBJECT” (Purdue Pharma, priority 2014, published 2017)
